Reference: patent US10744128B2, “6-(5-membered heteroaryl)isoquinolin-3-yl-(5-membered heteroaryl) carboxamides and preparation and use thereof” (Samumed, LLC, priority 2017, dated 2020)

Legend:
[1] = system: Wnt-responsive promoter (Sp5-Luc reporter) in SW480 colon carcinoma cells; test: Sp5-Luc reporter gene screening assay for Wnt activity in SW480 cells; assay type: cell-based, human; conditions: Homo sapiens, 36 to 48 hours, luminescence
Excerpt: The screening assay for Wnt activity is described as follows. Reporter cell lines can be generated by stably transducing cancer cell lines (e.g., colon cancer) or primary cells (e.g., IEC-6 intestinal cells) with a lentiviral construct that includes a Wnt-responsive promoter driving expression of the firefly luciferase gene.
SW480 colon carcinoma cells were transduced with a lentiviral vector expressing luciferase with a human Sp5 promoter consisting of a sequence of eight TCF/LEF binding sites. SW480 cells stably expressing the Sp5-Luc reporter gene and a hygromycin resistance gene were selected by treatment with 150 μg/mL of hygromycin for 7 days. These stably transduced SW480 cells were expanded in cell culture and used for all further screening activities. […] For Sp5-Luc reporter gene assays, the cells were plated at 4,000 cells/well in 384-well plates with a DMEM medium containing 1% fetal bovine serum, and 1% Penicillin-Streptomycin and incubated for 36 to 48 hours at 37° C. and 5% CO2. Following incubation, 15 μl of BriteLite Plus luminescence reagent (Perkin Elmer) was added to each well of the 384-well assay plates. The plates were placed on an orbital shaker for 2 min and then luminescence was quantified using the Envision (Perkin Elmer) plate reader. Readings were normalized to DMSO only treated cells, and normalized activities were utilized for EC50 calculations using the dose-response log (inhibitor) vs. response −variable slope (four parameters) nonlinear regression feature available in GraphPad Prism 5.0 (or Dotmatics).

[2] = biological target: recombinant GSK3β kinase (Homo sapiens (Human), UniProt P49841); test: GSK3β kinase assay (Ser/Thr 09 peptide Z-lyte, FRET); assay type: biochemical; conditions: GSK3β kinase, 46 μM ATP, one hour; method calls values IC50
[3] = system: SW480 colon carcinoma cells; test: Cell viability assay (CellTiter-Glo) in SW480 cells; assay type: cell-based, human; conditions: Homo sapiens, 96 h, four days
Experimental: SW480 colon carcinoma cells were transduced with a lentiviral vector expressing luciferase with a human Sp5 promoter consisting of a sequence of eight TCF/LEF binding sites. SW480 cells stably expressing the Sp5-Luc reporter gene and a hygromycin resistance gene were selected by treatment with 150 µg/mL of hygromycin for 7 days. These stably transduced SW480 cells were expanded in cell culture and used for all further screening activities.
For the Cell Viability Assays, the cells were plated at 2,000 cells/well in 384-well plates with a DMEM medium containing 1% fetal bovine serum, and 1% Penicillin-Streptomycin and incubated for […] at 37° C. and 5% CO2. Eight replicates of DMSO-treated cells served as controls and cells treated with compound were performed in duplicate.
After incubation, 10 μL of CellTiter-Glo (Promega) was added to each well allowed to incubate for approximately 12 minutes. This reagent “results in cell lysis and generation of a luminescent signal proportional to the amount of ATP present. The amount of ATP is directly proportional to the number of cells present in culture, in agreement with previous reports. The CellTiter-Glo® Assay generates a “glow-type” luminescent signal, produced by the luciferase reaction (Promega.com)”.

[4] = system: primary human fibroblasts derived from IPF patients (LL29 cells), α-smooth muscle actin; test: Inhibition of fibrotic process: αSMA in TGF-β1 treated LL29 fibroblasts; assay type: cell-based; conditions: Homo sapiens, Fibroblast, 96 h; LL29 cells, TGF-β1 20 ng/mL, 4 days, % cells positive for αSMA
Experimental: Representative compounds were screened using primary human fibroblasts (derived from IPF patients) treated with TGF-β1 to determine their ability to inhibit the fibrotic process.
LL29 cells were plated at 1,500 cells/well in 70 μL/well F12 medium supplemented with 1% Fetal Bovine Serum. […] Wells treated with TGF-β1 and containing DMSO were used as positive control, and cells with only DMSO were negative control. […] Following incubation for 4 days, SYTOX green nucleic acid stain (Life Technologies [Thermo Fisher Scientific]) was added to the wells at a final concentration of 1 μM and incubated at room temperature for 30 min.

[5] = system: IL-6; test: IL-6 inhibition in LPS-stimulated human peripheral blood mononuclear cells (HTRF); assay type: cell-based; conditions: Homo sapiens, PBMC; for EC50: huPBMCs, LPS 50 ng/mL, 22 hours, IL-6 HTRF; for inhibition at 10 µM: read-out: percent inhibition at 10 μM
Experimental: Fresh Normal PB MNC (Catalog # PB001, AllCells, Alameda, Calif.) were shipped overnight at 4° C. and resuspended in Roswell Park Memorial Institute (RPMI) 1640 Medium, with GlutaMAX Supplement (Catalog #61870127, ThermoFisher Scientific, Waltham, Mass.) supplemented with 1% Penicillin-Streptomycin (Catalog #15140163, ThermoFisher Scientific, Waltham, Mass.) and 1% fetal bovine serum (FBS) (Catalog #16140089, ThermoFisher Scientific, Waltham, Mass.) assay media.
Fresh normal human peripheral blood mononuclear cells (huPBMCs) were resuspended in 1% FBS-RPMI assay media with 1% Penicillin-Streptomycin 1% to a cell concentration of 1×10e6 cells/mL. […] 50 ng/mL of Lipopolysaccharides from Escherichia coli 0111:B4 (Catalog #L5293-2ML, Sigma-Aldrich, St. Louis, Mo.) was added after 2 hours and cells were incubated for another 22 hours at 37° C.-5% CO2. After 22 hour incubation, a mixture of anti-IL6 XL665 and anti-IL-6 Cryptate diluted in reconstitution buffer (Catalog #62IL6PEC, Cisbio Inc., Bedford, Mass.) was added to each well. Following incubation for 3 hours at room temperature, Homogeneous Time-Resolved Fluorescence (HTRF) was measured using the Envision (Perkin Elmer, Shelton, Conn.) at 665 nm and […]. The ratio of fluorescence at 665 nm to 620 nm was used as a readout for IL-6 quantification. All samples were processed in duplicate. Readings were normalized to DMSO treated cells and normalized activities were utilized for EC50 calculations. EC50 was determined using software generated by Dotmatics Limited (Windhill Bishops Stortford Herts, UK) using the Levenberg-Marquardt 4 parameter fitting procedure with finite different gradients.

[6] = biological target: recombinant DYRK1A kinase (Homo sapiens (Human), UniProt Q13627); test: DYRK1A kinase assay (Ser/Thr 18 peptide Z-lyte, FRET); conditions: DYRK1A kinase, 30 μM ATP, one hour; method calls values IC50

recombinant GSK3β kinase, sequence (P49841 whole entry): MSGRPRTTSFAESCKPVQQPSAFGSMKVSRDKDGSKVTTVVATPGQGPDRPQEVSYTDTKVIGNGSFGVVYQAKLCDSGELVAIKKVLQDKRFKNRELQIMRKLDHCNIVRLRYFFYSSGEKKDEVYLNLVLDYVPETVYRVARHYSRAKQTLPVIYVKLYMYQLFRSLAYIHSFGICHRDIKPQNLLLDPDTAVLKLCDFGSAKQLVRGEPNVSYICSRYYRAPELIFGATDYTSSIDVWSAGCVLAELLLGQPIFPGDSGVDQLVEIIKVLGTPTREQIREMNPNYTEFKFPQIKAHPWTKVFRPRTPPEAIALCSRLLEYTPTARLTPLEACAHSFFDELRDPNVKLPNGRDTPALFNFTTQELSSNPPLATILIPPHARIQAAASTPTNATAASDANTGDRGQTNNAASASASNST

| Compound | EC50 [1] [nM] | EC50 [2] [nM] | EC50 [3] [nM] | EC50 [5] [nM] | EC50 [6] [nM] | EC50 [4] [nM] | inhibition at 10 µM [5] [%] |
| --- | --- | --- | --- | --- | --- | --- | --- |
| CN(C)C1CN(c2nc(C(=O)Nc3cc4cc(-c5cnn(C)c5)ccc4cn3)co2)C1 [Compound 18, 2-(3-(Dimethylamino)azetidin-1-yl)-N-(6-(1-methyl-1H-pyrazol-4-yl)isoquinolin-3-yl)oxazole-4-carboxamide] | 1040 | 1260 | 3910 | > 10000 | 15 | 481 | 9 |
| Cn1cc(-c2ccc3cnc(NC(=O)c4coc(C5CCNCC5)n4)cc3c2)cn1 [Compound 19, N-(6-(1-Methyl-1H-pyrazol-4-yl)isoquinolin-3-yl)-2-(piperidin-4-yl)oxazole-4-carboxamide] | 106 | 979 | 300 | 695 | 12 | 170 |  |
| CN1CCC(c2nc(C(=O)Nc3cc4cc(-c5cnn(C)c5)ccc4cn3)co2)CC1 [Compound 20, N-(6-(1-Methyl-1H-pyrazol-4-yl)isoquinolin-3-yl)-2-(1-methylpiperidin-4-yl)oxazole-4-carboxamide] | 107 | 3240 | 427 | 3690 | 15 | 2000 |  |
| CC(C)N1CCC(c2nc(C(=O)Nc3cc4cc(-c5cnn(C)c5)ccc4cn3)co2)CC1 [Compound 22, 2-(1-Isopropylpiperidin-4-yl)-N-(6-(1-methyl-1H-pyrazol-4-yl)isoquinolin-3-yl)oxazole-4-carboxamide] | 180 | 2590 | 782 | > 10000 | 16 | 2910 | 27.8 |
| CN1CCN(c2nc(C(=O)Nc3cc4cc(-c5cnn(C)c5)ccc4cn3)co2)CC1 [Compound 23, N-(6-(1-Methyl-1H-pyrazol-4-yl)isoquinolin-3-yl)-2-(4-methylpiperazin-1-yl)oxazole-4-carboxamide] | 1020 | 2180 | 3730 | > 10000 | 18 | 325 | 5.5 |
| CN(C)C1CN(c2ncc(C(=O)Nc3cc4cc(-c5cnn(C)c5)ccc4cn3)s2)C1 [Compound 24, 2-(3-(Dimethylamino)azetidin-1-yl)-N-(6-(1-methyl-1H-pyrazol-4-yl)isoquinolin-3-yl)thiazole-5-carboxamide] | 1320 | 1760 | 1640 | 3020 | 2 | 2750 |  |
| Cn1cc(-c2ccc3cnc(NC(=O)c4csc(C5CCNCC5)n4)cc3c2)cn1 [Compound 25, N-(6-(1-Methyl-1H-pyrazol-4-yl)isoquinolin-3-yl)-2-(piperidin-4-yl) thiazole-4-carboxamide] | 546 | 3060 | 876 | 2580 | 39 | 1190 |  |
| CN1CCN(c2nc(C(=O)Nc3cc4cc(-c5cnn(C)c5)ccc4cn3)cs2)CC1 [Compound 26, N-(6-(1-Methyl-1H-pyrazol-4-yl)isoquinolin-3-yl)-2-(4-methylpiperazin-1-yl)thiazole-4-carboxamide] | 1750 | 2190 | 3410 | > 10000 | 3 | 4700 | 40.3 |
| Cn1cc(-c2ccc3cnc(NC(=O)c4cn(C5CCNCC5)nn4)cc3c2)nn1 [Compound 33, N-(6-(1-Methyl-1H-1,2,3-triazol-4-yl)isoquinolin-3-yl)-1-(piperidin-4-yl)-1H-1,2,3-triazole-4-carboxamide] | 71 | 316 | 257 | 852 | 7 | 562 |  |

Continued, in another order:

| EC50 [1] [nM] | EC50 [2] [nM] | EC50 [3] [nM] | EC50 [5] [nM] | EC50 [6] [nM] | Compound | EC50 [4] [nM] | inhibition at 10 µM [5] [%] |
| --- | --- | --- | --- | --- | --- | --- | --- |
| 30 | 230 | 60 | 366 | 3 | Cn1cc(-c2ccc3cnc(NC(=O)c4cnn(C5CCNCC5)c4)cc3c2)nn1 [Compound 29, N-(6-(1-Methyl-1H-1,2,3-triazol-4-yl)isoquinolin-3-yl)-1-(piperidin-4-yl)-1H-pyrazole-4-carboxamide] | 135 |  |
| 14 | 322 | 32 | 261 | 3 | CN1CCC(n2cc(C(=O)Nc3cc4cc(-c5cn(C)nn5)ccc4cn3)cn2)CC1 [Compound 30, N-(6-(1-Methyl-1H-1,2,3-triazol-4-yl)isoquinolin-3-yl)-1-(1-methylpiperidin-4-yl)-1H-pyrazole-4-carboxamide] | 83 |  |
| 21 | 286 | 39 | 688 | 3 | CCN1CCC(n2cc(C(=O)Nc3cc4cc(-c5cn(C)nn5)ccc4cn3)cn2)CC1 [Compound 31, 1-(1-Ethylpiperidin-4-yl)-N-(6-(1-methyl-1H-1,2,3-triazol-4-yl)isoquinolin-3-yl)-1H-pyrazole-4-carboxamide] | 298 |  |
| 33 | 349 | 44 | 437 | 3 | CC(C)N1CCC(n2cc(C(=O)Nc3cc4cc(-c5cn(C)nn5)ccc4cn3)cn2)CC1 [Compound 32, 1-(1-Isopropylpiperidin-4-yl)-N-(6-(1-methyl-1H-1,2,3-triazol-4-yl)isoquinolin-3-yl)-1H-pyrazole-4-carboxamide] | 203 |  |
| 230 | 395 | 664 | 1100 | 6 | Cn1cc(-c2ccc3cnc(NC(=O)c4cn(C5CCN(CCF)CC5)nn4)cc3c2)nn1 [Compound 34, 1-(1-(2-Fluoroethyl)piperidin-4-yl)-N-(6-(1-methyl-1H-1,2,3-triazol-4-yl)isoquinolin-3-yl)-1H-1,2,3-triazole-4-carboxamide] | 642 |  |
